Experimental data taken from patent publication US7022839B2, “Heterodimeric conjugates of neomycin-chloramphenicol having an enhanced specificity against RNA targets and its preparation” (Korea Institute of Science and Technology, priority 2001, dated 2006).

What was measured:
RRE RNA = experiment: Fluorescence anisotropy competition binding (CRP displacement) to RRE RNA; design: species or system HIV; conditions: competition with CRP probe, 20° C., pH 7.5; read-out: binding force (bond constant KD) against RRE RNA
Description: (§1) The RNA of the present invention was prepared with sense DNA of 16S rRNA (sequence listing 1) and an antisense DNA of 16S rRNA (sequence listing 2); a sense DNA of RRE RNA (sequence listing 3) and an antisense DNA of RRE RNA (sequence listing 4); and a sense DNA of TS RNA (sequence listing 5) and an antisense DNA of TS RNA (sequence listing 6). […]
(§2) The paromomycin bonded with tetramethylrhodamine (hereinafter referred to as […]) is used as a luminescence fluorescent probe. The luminescence anisotropy is measured by establishing a thermostat of 20° C. at the Perkin-Elmer LS-50B luminescence spectroscope. The luminescence absorptance of CRP is 510 nm and its luminescence fluorescent is observed at 550 nm. […] The luminescence was measured at an elution buffer using 140 mM NaCl, 5 mM KCl, 1 mM MgCl2, and 20 mM HEPES pH 7.5. […]
(§3) A is the luminescence anisotropy value of CRP when RNA is present,
(§4) A0 is the luminescence anisotropy value of CRP when RNA is not present,
(§5) DA is the difference of luminescence anisotropy value when RNA is not present between various RNA concentrations, […]
(§6) If the newly prepared compound is added to the solution after inducing the bonding of the said RNA and CRP, CRP is separated from RNA by a competitive bonding reaction and the compound to be measured achieves a KD value by bonding with RNA. […]
(§7) [Aminoglycoside]0 is the initial concentration of aminoglycoside to be measured, […]

TS RNA = experiment: Fluorescence anisotropy competition binding (CRP displacement) to TS RNA; conditions: competition with CRP probe, 20° C., pH 7.5; read-out: binding force (bond constant KD) against TS RNA
Description: as §1, §2, §3, §4, §5, §6, §7

16S rRNA = experiment: Fluorescence anisotropy competition binding (CRP displacement) to 16S rRNA; conditions: competition with CRP probe, 20° C., pH 7.5; read-out: binding force (bond constant KD) against 16s rRNA
Description: as §1, §2, §3, §4, §5, §6, §7

Measured: Kd

Neomycin [reference compound]
> 2 µM: all assays above
